A short description of data set [1]: Acute toxicity on the mouse. Type of data set: in vivo. Particulars: per os.
Data set [2] is described as follows: Clinical and biological tolerance in patients. As to the method: Mrs. […] Post-operative chemotherapy (5-fluoro-uracil and endoxan) was then effected up to April 1979. At that time, […] underwent a second operation with excision of the remaining cervix and omentectomy. […] Cobalt therapy was then carried out from Nov. 5th, 1979 to Feb. 5th, 1980 on the abdomen, pelvis and diaphragm cupolas, then further chemotherapy (hexamethylmelamine) from August to October 1980. […] Treatment by gallium chloride started on Nov. 1 st, 1980 at the posology of 300 mg per day per os in three doses of 100 mg. […] An echotomograph on Dec. […] A third echotomograph was made on Jan. […] On Mar.
The treatment by gallium chloride was started on May 15th, 1981, at the posology of 600 mg/24 hours up to Sept. 20th, 1981, in association with a heparinotherapy at mini-doses. This heparinotherapy had been prescribed to prevent a phlebitis or pulmonary embolism following the surgical operation of April 1981 and had not been interrupted in order not to provoke the phenomenon of tumoral flare-up. [Calciparin (heparin calcium salt) 0.2 ml, 3 times per day by sub-cutaneous route]. […] On Sept. […] This was the case. . . […] 29th, 1981. […] Up to Nov. […] It was from Sept.
HOT... […] , was operated on May 14th, 1981 for an adenocarcinoma of the colon. […] An almost total colectomy was carried out, leaving 20 cm of sigmoid and a resection of the small bowel over a length of 15 cm. […] On Oct. […] An exploratory laparotomy was made on Nov. […] 7th, 1982.
Gallium chloride therapy was started on Sept.

Setting [3] is: 800 mg/24 hours oral, one month.

As a reminder, the LD50 is the dose expected to kill half of the subjects tested. A lower LD50 goes with a more toxic substance.

`[Cl][Ga]([Cl])[Cl]` [gallium chloride]: in data set [1], the median lethal dose (LD50) was 1790 mg/kg. The “clinical and biological tolerance, 1st patient” value in data set [2] (300 mg per day per os, two months uninterrupted) is given as “good”. Further, in data set [2] (setting [3]), the “renal, hepatic, blood cells count disturbance, 5th patient” value is on record as “no renal nor hepatic disturbance nor disturbances in the blood cells count”; the “tolerance, 5th patient” value is “tolerated perfectly well, both from the clinical and biological point of view”. For the same compound, in data set [2] (800 mg/24 hours, from Nov. 27th, 1981), the “anorexia leading to stop of therapy, 3rd patient” value is “virtually total anorexia”. Besides, the “tolerance, 4th patient” value in data set [2] (500 then 300 mg/24 hours oral, without renal disorders) was “perfect clinically and biologically (without renal disorders in particular)”. For the same compound, in data set [2] (Jan. 6th, 1982), the “blood cells count, hepatic balance, calcemia, phosphatemia, 2nd patient” value is listed as “normal”; the “general state, 2nd patient” value is “good, with a normal appetite”; the “inflammatory balance (haptoglobin), 2nd patient” value was “normal”. Also, the “creatinine, 2nd patient” value in data set [2] (Jan. 6th, 1982, normal) came out at 88.50 µmol/L. Besides, in data set [2] (Jan. 6th, 1982, oral since May 20th, 1981), the “tolerance, 2nd patient” value is “perfectly well tolerated, without any digestive disorders or neurological, cardiac or cutaneous effects”. Further, the “weight, 2nd patient” value in data set [2] (Jan. 6th, 1982, unchanged since beginning of treatment) came out at 71 kg. The “tolerance of 800 mg/24 hours, 3rd patient” value in data set [2] (Sept. 29th to Nov. 27th, 1981) is “tolerated up to Nov. 27th, 1981”. Moreover, the “digestive intolerance leading to interruption, 1st patient” value in data set [2] (after Mar. 20th, 1981) is on record as “had to be interrupted due to digestive intolerance”. Further, the “renal function and blood cells count, 3rd patient” value in data set [2] (up to Nov. 27th, 1981) was “normal”. The “weight, 3rd patient” value in data set [2] (up to Sept. 20th, 1981, 600 mg/24 hours with Calciparin, stable) was found to be 70 kg.

Values taken from patent publication US4596710A, “Gallium chloride as a new anti-cancerous drug” (priority 1981, dated 1986).
